Source: patent publication US20250197416A1, “PARTHENOLIDE DERIVATIVES AND USE THEREOF” (University of Rochester, priority 2022, published 2025)

How the values were obtained:
[1] = system: human cancer cells: PC3, SK-N-MC, MDA-MB-231, A549, HeLa, SK-MEL-2, SJSA-1, HCT-116; experiment: MTT cell viability assay, panel of cancer cell lines; format: cell-based; settings: 24 hours; for anticancer activity profile (cytotoxicity spectrum / cancer-type specificity): reduction of cell viability at 10 μM and 20 μM; for anticancer activity (reduction of cancer cell viability): 10 μM and 20 μM
Description: (§1) The anticancer activity of the compounds was determined using a MTT (3-[4,5-dimethylthiazol-2-yl]-2,5 diphenyl tetrazolium bromide) assay, which measures cell viability upon incubation of the cells with the compounds. […] Other notable structure-activity insights include the large impact on the linkage utilized for macrocyclization of 14-hydroxy-PTL-derived AB08 and AB24 on the cancer cell specificity of these molecules.
Experimental Procedures. All cancer cell lines were maintained in a 37° C. humidified incubator with 5% C02. A549, MDA-MB-231, PC-3, SK-N-MC, HeLa, SJSA-1, HCT-116, and SK-MEL-2 cells were cultured in DMEM medium (Gibco) supplemented with 10% FBS (Gibco) and 100 I.U./ml penicillin-streptomycin (Sigma). Adherent cells were dissociated using Accutase (Millipore) or trypsin-EDTA 0.25% (Gibco). Adherent cells were seeded in a 96-well plate at a density of 1000-20,000 cells per well in 180 μl complete DMEM media. Suspension cells were seeded in conical 96-well plates (Nunc) at a density of 30,000 cells per well in 90 ul of complete α-MEM media devoid of phenol red indicator. The plates were incubated in a humidified incubator for 16 hours prior to treatment. PTL analogs were prepared as concentrated stocks (2 mM) in DMSO and stored at −30° C. Prior to testing, the analogs were diluted into complete cell culture medium and the media was supplemented with sterile DMSO (10% of final volume). For the initial cytotoxicity screening, the compounds were added to the cells in 20 μl aliquots to give a final concentration of 20 μM and 10 μM parthenologs and 1% DMSO (n=3). Following a 24-hour incubation, the culture media from the adherent cell plates (e.g., HeLa, A549) was aspirated and replaced with 100 pd of 1 mg/mL Thiazolyl Blue Tetrazolium Bromide (MTT, Fisher) in complete culture medium devoid of phenol red. After incubation at 37° C. for 1 hour, the plates were centrifuged (4000 rpm, 5 minutes), the media was removed and 100 ul of DMSO was added to solubilize the formazan product. The resulting OD was measured at 550 nm using a multi-well plate reader (Tecan). Suspension cells were treated for 24 hours in the presence or in the absence of the compounds at 10 μM and 20 μM, followed by measurement of cell viability using alamarBlue stain. After incubation, […] of AlamarBlue (Invitrogen) was added to each well and incubated until color change was observed, typically approximately 20-24 hours, in the control wells (1% DMSO in media, no compound). The resulting absorbance was measured at 570 nm and 600 nm using a multi-well plate reader (Tecan).

leukemia cell line HL-60 = experiment: alamarBlue cell viability assay, HL-60; format: cell-based; settings: 10 μM and 20 μM, 24 hours
Description: The antileukemic activity of the PTL analogs was evaluated using the leukemia cell line HL-60 and the leukemia stem cell line M9-ENL1. To measure the compound activity against hematologic cells, cells were treated for 24 hours in the presence or in the absence of the PTL analog at 10 μM and 20 μM, followed by measurement of cell viability using alamarBlue stain (FIG. 9).
(§2) Experimental Procedures. All cancer cell lines were maintained in a 37° C. humidified incubator with 5% C02. A549, MDA-MB-231, PC-3, SK-N-MC, HeLa, SJSA-1, HCT-116, and SK-MEL-2 cells were cultured in DMEM medium (Gibco) supplemented with 10% FBS (Gibco) and 100 I.U./ml penicillin-streptomycin (Sigma). Adherent cells were dissociated using Accutase (Millipore) or trypsin-EDTA 0.25% (Gibco). Adherent cells were seeded in a 96-well plate at a density of 1000-20,000 cells per well in 180 μl complete DMEM media. Suspension cells were seeded in conical 96-well plates (Nunc) at a density of 30,000 cells per well in 90 ul of complete α-MEM media devoid of phenol red indicator. The plates were incubated in a humidified incubator for 16 hours prior to treatment. PTL analogs were prepared as concentrated stocks (2 mM) in DMSO and stored at −30° C. […] The resulting OD was measured at 550 nm using a multi-well plate reader (Tecan). […] The resulting absorbance was measured at 570 nm and 600 nm using a multi-well plate reader (Tecan).

[2] = compared with parthenolide; cited from earlier work
[3] = system: cervical (HeLa) cancer cells; experiment: MTT cell viability assay, HeLa; format: cell-based, human; settings: 10 μM and 20 μM, 24 hours
Description: as §1
as §2, with “treatment.” for “treatment. PTL analogs were prepared as concentrated stocks (2 mM) in DMSO and stored at −30° C.”

[4] = system: colon cancer cells (HCT-116); experiment: MTT cell viability assay, HCT-116; format: cell-based, human
Description: as §1
as §2, with “treatment.” for “treatment. PTL analogs were prepared as concentrated stocks (2 mM) in DMSO and stored at −30° C.”

[5] = system: breast cancer cells (MDA-MB-231); experiment: MTT cell viability assay, MDA-MB-231; format: cell-based, human; settings: relative to PTL
Description: as §1
as §2, with “treatment.” for “treatment. PTL analogs were prepared as concentrated stocks (2 mM) in DMSO and stored at −30° C.”

[6] = system: lung adenocarcinoma (A549); experiment: MTT cell viability assay, A549; format: cell-based, human; settings: relative to PTL
Description: as §1
as §2, with “treatment.” for “treatment. PTL analogs were prepared as concentrated stocks (2 mM) in DMSO and stored at −30° C.”

SMILES | anticancer activity profile (cytotoxicity spectrum / cancer-type specificity) [1] | anticancer activity (reduction of cancer cell viability) [1] | other results
C=C(C)[C@@H]1C[C@H]2C(=C)C(=O)O[C@@H]2[C@H]2O[C@]2(C)CCC=CCCC(=O)O1 [AB10] | intermediate | – | –
C=C1C(=O)O[C@@H]2[C@H]3O[C@]3(C)CC/C=C3\COC(=O)O[C@H]3C[C@@H]12 [JMB02] | – | less potent anticancer activity | –
C=C1C(=O)O[C@@H]2[C@H]3O[C@]3(C)CCC(Sc3ccccc3)C(C=O)C(=O)C[C@@H]12 (stereo partly shown) [JMB06] | – | – | anticancer activity against HL-60 (leukemia cell line HL-60): relatively selective anticancer activity
C=C1C(=O)O[C@@H]2[C@H]3O[C@]3(C)CCC3C(=CCC(C#N)(C#N)C3(C#N)C#N)CC[C@@H]12 (stereo partly shown) [AB17] | – | lower activity against the same cell lines | –
C=C1C(=O)O[C@@H]2[C@H]3O[C@]3(C)CCC3C(=CCC4=C3C(O)C=CC4O)CC[C@@H]12 (stereo partly shown) [AB19] | intermediate | potent anticancer activity against at least six cell lines | –
CC1=CCCC2(C)OC2C2OC(=O)C(C)C2CC1 (stereo not shown) | – | – | anticancer and anti-inflammatory activity after reduction of the α-methylene-γ-lactone group [2]: complete loss of activity
C=C1C(=O)O[C@@H]2[C@H]3O[C@]3(C)CC[C@@H]3C(=CC[C@@H]4C(=O)OC(=O)[C@@H]43)CC[C@@H]12 [AB18] | – | lower activity against the same cell lines | –
C=C1C(=O)O[C@@H]2[C@H]3O[C@]3(C)CC/C=C3\COS(=O)(=O)O[C@H]3C[C@@H]12 [JMB03] | high cancer-type specificity | – | selective activity against cervical (HeLa) cancer cells [3]: selective activity; selective activity against colon (HCT-116) cancer cells ([4]; 10 μM and 20 μM, 24 hours): selective activity
C=C1C(=O)O[C@@H]2[C@H]3O[C@]3(C)CCC(C3C=CC(=O)O3)C(C=O)C(=O)C[C@@H]12 (stereo partly shown) [JMB07] | – | – | anticancer activity against HL-60 (leukemia cell line HL-60): relatively selective anticancer activity
C=C1CC[C@H]2C(=C)C(=O)O[C@@H]2[C@H]2O[C@]2(C)CCC=CCCC(=O)OC1 [AB07] | – | – | increased potency compared to PTL, based on half-maximal lethal dose (LD50) ([4]; HCT-116, relative to PTL): > 3 fold
C=C1C(=O)O[C@@H]2[C@H]3O[C@]3(C)CC[C@@H]3C(=CCn4c(=O)n(-c5ccccc5)c(=O)n43)CC[C@@H]12 [AB16] | intermediate | potent anticancer activity against at least six cell lines | –
C=C1C(=O)O[C@@H]2[C@H]3O[C@]3(C)CC/C=C(\C)C(=O)C[C@@H]12 [JMB08] | intermediate | – | –
C=C(C)[C@@H]1C[C@H]2C(=C)C(=O)O[C@@H]2[C@@H]2O[C@]2(C)CCCC=CCc2ccccc2C(=O)O1 [AB25] | broad-spectrum cytotoxicity | – | enhanced potency compared to PTL, based on half-maximal lethal dose (LD50) [5]: 210 fold; enhanced potency compared to PTL, based on half-maximal lethal dose (LD50) [6]: 210 fold
C=C1CC[C@H]2C(=C)C(=O)O[C@@H]2[C@@H]2O[C@]2(C)CCC/C=C\Cc2ccccc2C(=O)OC1 [AB24] | broad-spectrum cytotoxicity | – | –
C=CCC[C@@]1(C)O[C@@H]1[C@H]1OC(=O)C(=C)[C@@H]1CCC(=C)C=O [AB26] | high cancer-type specificity | – | –
C=C/C1=C\CC[C@@]2(C)O[C@@H]2[C@H]2OC(=O)C(=C)[C@@H]2CC1 [AB20] | high cancer-type specificity | – | –
